Assay results published in patent US4749710A, “Immunosuppressive agents” (priority 1985, dated 1988).

What was measured:
[1] = tested on: murine cytotoxic T-lymphocyte responses; assay: cells; format: cell-based; conditions: for CTL activity (% specific ^51 Cr release): 90:1 effector to target
From the text: Immunosuppressive Activity of Vitamin D compounds on cytotoxic T lymphocyte Responses-General Test Description
Cytotoxic thymus-derived lymphocytes (CTL) constitute an important aspect of immune function and, as a result, play a key role in the rejection of grafted cells, tissues and organs. It is, therefore, essential to suppress CTL generation in a clinical situation in which CTL function is antithetical to the desired outcome as, for example, in transplantation. Cytotoxic T-lymphocytes have been studied for several years by many investigators and methods to evaluate CTL responses in vitro are well established.
As described below, CTL responses as affected by Vitamin D derivatives, were studied in vitro using cells from lab animals and human volunteers. Cytotoxic T-lymphocytes were generated from responder lymphoid cells in tissue culture medium during an incubation period of 6 days by exposure to foreign stimulator cells, i.e. from a genetically disparate source. A portion of the resultant effector cells were CTL capable of killing fresh cells related to the stimulator cells employed in the 6 day culture. To detect killing of cells by CTL, fresh target cells were incubated in excess ^51 chromium (as sodium chromate) until they were extensively labelled. Since target cells will retain the internalized radioisotope as long as they are viable but release the label when they are killed, CTL activity was assessed by quantitating the chromium released from target cells after a 4 or 18 hour incubation with CTL. Immunosuppression produced by Vitamin D derivatives was gauged as the ability to inhibit CTL responses during the initial incubation period relative to control cultures to which no Vitamin D derivative was added.
Female BALB/c By and C57BL/6 mice were obtained from Jackson Laboratories and were used between 8 and 10 weeks of age. Mice were given food and water ad libitum and were kept in a 12 hour light and 12 hour dark cycle.
For murine cultures, minimal essential medium with Hank's salts was supplemented to 1 millimolar with sodium pyruvate, to 0.1 millimolar with nonessential amino acids, to 2 millimolar with 1-glutamine, to 10% (v/v) with heat-inactivated fetal bovine serum, to 50 micrograms per ml with gentamicin, and to 1000 milligrams per liter with sodium bicarbonate and was used as tissue culture medium.
Stock solutions of Vitamin D derivatives were made in argon-saturated ethanol at a final concentration of 1×10^-2 molar, were covered with argon before sealing and were stored at -20° C. in the dark. Reduced lighting conditions were always employed when working with compounds. Compounds were diluted in tissue culture medium to 1×10^-4 molar and all subsequent dilutions were done in tissue culture medium containing 1% v/v ethanol. The final dilution into culture vessels was 1:10 thus keeping the vehicle concentration constant at 0.1% while varying the concentration of compound as tabulated in the results. For purposes of control, mixed leukocyte cultures were incubated in medium only (medium control) or in medium containing a final concentration of 0.1% ethanol (vehicle control).
Murine cytotoxic T-lymphocytes were generated in mixed leukocyte cultures by known methods. Specifically, single cell suspensions were prepared from spleens by gentle disruption in balanced salt solution (Hanks' balanced salt solution supplemented to 10%, v/v, with fetal bovine serum). After sedimentation on ice to remove particulate debris, cell suspensions were centrifuged at 400xg and were resuspended in fresh balanced salt solution. Cells to be used as stimulator cells were precluded from proliferating or generating cytotoxic T-lymphocytes by exposure to 1000 rads of gamma irradiation using a ^137 cesium source. […]

[2] = tested on: cytotoxic T-lymphocyte responses (P815 tumor cells); assay: Suppression of murine CTL responses in vivo (mice immunized with P815 cells); set-up: species or system C57BL/6 mice; conditions: for CTL activity (% specific ^51 Cr release): day 10; for CTL activity (% specific ^51 Cr release) / Inhibition of CTL activity (%): effector to target 10:1
Description: General description. The general test considerations are similar to those previously described for the in vitro murine experiments except that stimulator cells and experimental compound were administered to intact laboratory mice. The impact of compound on CTL responses generated in vivo was determined by comparing the resultant CTL activity from test mice to the CTL activity generated in mice which received vehicle only.
Female C57BL/6 mice were used between the ages of 9-12 weeks. Mice were given food and water ad libitum and were kept in a 12-hour light and 12-hour dark cycle.
A balanced salt solution (BSS) was prepared as described for tissue culture medium in the in vitro murine experiments but was additionally supplemented to 0.01 molar with HEPES buffer.
The compound, 22,23-dehydro-1α,25S,26-trihydroxycholecalciferol was dissolved in dimethylsulfoxide at final concentrations of 2 or 4 mg per ml. When working with vitamin D compounds, conditions of reduced lighting were employed.
In vivo regimens. Mice were apportioned at 4 per group and were inoculated intraperitoneally with 3×10^6 allogeneic P815 tumor cells and the resulting CTL activity was assessed 10 days later. Mice were treated by the intraperitoneal route with 25 microliters of test compound dissolved in dimethylsulfoxide or with dimethylsulfoxide only (vehicle control). In test 1, mice were given daily treatments of 50 micrograms of 22,23-dehydro-1α,25S,26-trihydroxycholecalciferol per day starting one day before immunization and continuing until the day before assay. In test 2, mice were treated with 100 micrograms of 22,23-dehydro-1α,25S,26-trihydroxycholecalciferol only twice: on the day before immunization and on the day of immunization.
Assay for CTL activity. Ten days after immunization of mice with P815 cells, single spleen cell suspensions were prepared by passage of spleens through a steel mesh into BSS and were subsequently washed twice with BSS. Further manipulations of spleen cells, labeling of P815 target cells with ^51 Cr, mechanics of the assay, and the calculation of results from the CTL assay are the same as described earlier for the in vitro murine CTL tests. Cytotoxic T lymphocyte activity was determined individually on spleen cells from each animal in each group and the results are expressed as the mean CTL activity (as percent specific ^51 Cr release) of each group±the standard deviation.
Statistical analysis. A student's t-test was to compare the vehicle-treatedgroup to the test group in each test and the resultant p values are shown.

| Compound | inhibition at 10 µM ([1]; Mus musculus, T-lymphocyte, Table I, 1 × 10^-5 molar, vs vehicle control, read-out: Inhibition of CTL activity (%)) [%] | inhibition at 1 µM ([1]; Mus musculus, T-lymphocyte, Table I, 1 × 10^-6 molar, vs vehicle control, read-out: Inhibition of CTL activity (%)) [%] | inhibition at 0.1 µM ([1]; Mus musculus, T-lymphocyte, Table I, 1 × 10^-7 molar, vs vehicle control, read-out: Inhibition of CTL activity (%)) [%] | inhibition at 0.01 µM ([1]; Mus musculus, T-lymphocyte, Table I, 1 × 10^-8 molar, vs vehicle control, read-out: Inhibition of CTL activity (%)) [%] | inhibition at 0.001 µM ([1]; Mus musculus, T-lymphocyte, Table I, 1 × 10^-9 molar, vs vehicle control, read-out: Inhibition of CTL activity (%)) [%] | CTL activity (% specific ^51 Cr release) ([1]; Table I, 1 × 10^-5 molar) | CTL activity (% specific ^51 Cr release) ([1]; Table I, 1 × 10^-6 molar) | CTL activity (% specific ^51 Cr release) ([1]; Table I, 1 × 10^-7 molar) | CTL activity (% specific ^51 Cr release) ([1]; Table I, 1 × 10^-8 molar) | CTL activity (% specific ^51 Cr release) ([1]; Table I, 1 × 10^-9 molar) | suppression of murine cytotoxic T-lymphocyte responses (in words) ([1]; in vitro) | reduction in CTL activity in mice (in words) ([2]; both tests) | CTL activity (% specific ^51 Cr release) ([2]; test 1, 50 ug/dose intraperitoneal daily) | Inhibition of CTL activity (%) ([2]; test 1, 50 ug/dose intraperitoneal daily, p < 0.05) | CTL activity (% specific ^51 Cr release) ([2]; test 2, 100 ug/dose intraperitoneal, twice) | Inhibition of CTL activity (%) ([2]; test 2, 100 ug/dose intraperitoneal, twice, p < 0.01) |
| --- | --- | --- | --- | --- | --- | --- | --- | --- | --- | --- | --- | --- | --- | --- | --- | --- |
| C=C1/C(=C\C=C2/CCC[C@]3(C)[C@@H]([C@H](C)C[C@H](O)CC(C)(C)O)CC[C@@H]23)C[C@@H](O)C[C@@H]1O [1α,23S,25-(OH)3 --D3, 1α,23S,25-Trihydroxycholecalciferol] | 77 | 59 | 43 | 18 | 0 | 10 | 18 | 25 | 36 | 45 | suppress murine cytotoxic T-lymphocyte responses | – | – | – | – | – |
| C=C1/C(=C\C=C2/CCC[C@]3(C)[C@@H]([C@H](C)C=CC[C@](C)(O)CO)CC[C@@H]23)C[C@@H](O)C[C@@H]1O [1α,25S,26-(OH)3 --Δ^22 -D3, 1α,25S,26-Trihydroxy-Δ^22-cholecalciferol] | – | – | – | – | – | – | – | – | – | – | – | statistically significant reduction in CTL activity | 13 ± 4 | 58 | 14 ± 2 | 53 |
